Reference: patent US20020052295A1, “Diacyl derivatives of propylene diamine having herbicidal activity” (priority 1999, published 2002)

What was measured:
[1] = system: CIRAR; experiment: Pre-emergence herbicidal activity on CIRAR (canada thistle, seedling); type: in vivo, Cirsium arvense; conditions: lowest tested rate giving 80% or greater inhibition, approx. 14 days after planting and treating, greenhouse
Procedure, shortened: (§1)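 GR80 from percent growth inhibition versus untreated controls, rated about 14 days after planting and pre-emergence soil-surface application. Compound applied in 50:50 acetone:water over freshly covered seeds; pots kept in greenhouse at 30/21 °C day/night.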

[2] = system: PANDI; experiment: Post-emergence herbicidal activity on PANDI (fall panicum); type: in vivo, Panicum dichotomiflorum; conditions: post-emergence spray; lowest tested rate with 80% or greater inhibition; about 14 days after treatment
Source text: (§2) All such uses, and the biological activity enabling such uses, are embraced by the term “herbicidal” herein. Tables 15 and 16 summarize results of tests conducted as described below to determine the pre-emergence herbicidal activity, in the form of a GR80 value, of illustrative compounds of this invention. […] Where herbicidal activity was evident but 80% inhibition was not achieved at the highest rate tested (typically 1000 g/ha), an asterisk (*) is shown in the following tables. Herbicidal activity evident in the form of symptoms of phytotoxicity, in the absence of at least 80% inhibition at any rate, is indicated in the tables by “phyto”. A blank cell in the following tables indicates no herbicidal or phytotoxic response at any rate tested.
(§3) In another set of tests, the post-emergence activity of compounds of this invention was evaluated on the cool season species listed above. The following procedure was used.
(§4) A pre-prepared topsoil mixture (described above) was placed in a pot and compacted to a depth of 1.0 to 1.25 cm from the top of the pot. Seeds of each of several monocotyledonous and dicotyledonous annual plant species were placed on top of the soil The seeds were covered with a mixture of 50% topsoil and 50% Rediearth™ in sufficient quantity to level-fill the pots. The pots were then placed on a greenhouse bench and subirrigated as needed until plants growing from the seeds had emerged and reached a suitable growth stage for post-emergence treatment, typically 9 to 14 days after planting.
(§5) A known amount of each test compound dissolved or suspended in an appropriate organic solvent was diluted with a 50:50 mix of acetone and water and applied to the plants by spraying with a standard spray nozzle in a spray volume of 3,100 l/ha at a spray pressure of […] (30 psig). Control plants were not sprayed.
(§6) After treatment the plants were placed in a greenhouse with a 30/21° C. day/night temperature regime and were subsequently watered as needed for growth. Approximately 14 days after treatment, the plants were observed and herbicidal efficacy recorded as percent inhibition by comparison with control plants.

[3] = system: SORHA; experiment: Post-emergence herbicidal activity on SORHA (johnsongrass, seedling); type: in vivo, Sorghum halepense; conditions: post-emergence spray; lowest tested rate with 80% or greater inhibition; about 14 days after treatment
Source text: as §2, §3, §4, §5, §6

[4] = system: BRAPP; experiment: Post-emergence herbicidal activity on BRAPP (broadleaf signalgrass); type: in vivo, Brachiaria platyphylla; conditions: post-emergence spray; lowest tested rate with 80% or greater inhibition; about 14 days after treatment
Source text: as §2, §3, §4, §5, §6

[5] = system: DIGSA; experiment: Pre-emergence herbicidal activity on DIGSA (large crabgrass); type: in vivo, Digitaria sanguinalis; conditions: lowest tested rate giving 80% or greater inhibition, approx. 14 days after planting and treating, greenhouse
Procedure, shortened: as §1

[6] = system: SORVU; experiment: Post-emergence herbicidal activity on SORVU (shattercane); type: in vivo, Sorghum vulgare; conditions: post-emergence spray; lowest tested rate with 80% or greater inhibition; about 14 days after treatment
Source text: as §2, §3, §4, §5, §6

[7] = system: AMARE; experiment: Post-emergence herbicidal activity on AMARE (redroot pigweed); type: in vivo, Amaranthus retroflexus; conditions: post-emergence spray; lowest tested rate with 80% or greater inhibition; about 14 days after treatment
Source text: as §2, §3, §4, §5, §6

[8] = system: ECHCG; experiment: Post-emergence herbicidal activity on ECHCG (barnyardgrass); type: in vivo, Echinochloa crus-galli; conditions: post-emergence spray; lowest tested rate with 80% or greater inhibition; about 14 days after treatment
Source text: as §2, §3, §4, §5, §6

[9] = system: ABUTH; experiment: Post-emergence herbicidal activity on ABUTH (velvetleaf); type: in vivo, Abutilon theophrasti; conditions: post-emergence spray; lowest tested rate with 80% or greater inhibition; about 14 days after treatment
Source text: as §2, §3, §4, §5, §6

[10] = system: SETFA; experiment: Pre-emergence herbicidal activity on SETFA (giant foxtail); type: in vivo, Setaria faberi; conditions: lowest tested rate giving 80% or greater inhibition, approx. 14 days after planting and treating, greenhouse
Procedure, shortened: as §1

[11] = system: DATST; experiment: Post-emergence herbicidal activity on DATST (jimsonweed); type: in vivo, Datura stramonium; conditions: post-emergence spray; lowest tested rate with 80% or greater inhibition; about 14 days after treatment
Source text: as §2, §3, §4, §5, §6

[12] = system: PANMI; experiment: Post-emergence herbicidal activity on PANMI (wild proso millet); type: in vivo, Panicum miliaceum; conditions: post-emergence spray; lowest tested rate with 80% or greater inhibition; about 14 days after treatment
[13] = system: DIGSA; experiment: Post-emergence herbicidal activity on DIGSA (large crabgrass); type: in vivo, Digitaria sanguinalis; conditions: post-emergence spray; lowest tested rate with 80% or greater inhibition; about 14 days after treatment
[14] = system: SOLNI; experiment: Post-emergence herbicidal activity on SOLNI (black nightshade); type: in vivo, Solanum nigrum; conditions: post-emergence spray; lowest tested rate with 80% or greater inhibition; about 14 days after treatment
Source text: as §2, §3, §4, §5, §6

[15] = system: POROL; experiment: Post-emergence herbicidal activity on POROL (common purslane; table head prints PORAL); type: in vivo, Portulaca oleracea; conditions: post-emergence spray; lowest tested rate with 80% or greater inhibition; about 14 days after treatment
Source text: as §2, §3, §4, §5, §6

[16] = system: CONAR; experiment: Post-emergence herbicidal activity on CONAR (field bindweed); type: in vivo, Convolvulus arvensis; conditions: post-emergence spray; lowest tested rate with 80% or greater inhibition; about 14 days after treatment
Source text: as §2, §3, §4, §5, §6

[17] = system: PANMI; experiment: Pre-emergence herbicidal activity on PANMI (wild proso millet); type: in vivo, Panicum miliaceum; conditions: lowest tested rate giving 80% or greater inhibition, approx. 14 days after planting and treating, greenhouse
Procedure, shortened: as §1

[18] = system: BRAPP; experiment: Pre-emergence herbicidal activity on BRAPP (broadleaf signalgrass); type: in vivo, Brachiaria platyphylla; conditions: lowest tested rate giving 80% or greater inhibition, approx. 14 days after planting and treating, greenhouse
Procedure, shortened: as §1

[19] = system: SETFA; experiment: Post-emergence herbicidal activity on SETFA (giant foxtail); type: in vivo, Setaria faberi; conditions: post-emergence spray; lowest tested rate with 80% or greater inhibition; about 14 days after treatment
Source text: as §2, §3, §4, §5, §6

[20] = system: CHEAL; experiment: Post-emergence herbicidal activity on CHEAL (common lambsquarters); type: in vivo, Chenopodium album; conditions: post-emergence spray; lowest tested rate with 80% or greater inhibition; about 14 days after treatment
Source text: as §2, §3, §4, §5, §6

[21] = system: ECHCG; experiment: Pre-emergence herbicidal activity on ECHCG (barnyardgrass); type: in vivo, Echinochloa crus-galli; conditions: lowest tested rate giving 80% or greater inhibition, approx. 14 days after planting and treating, greenhouse
Procedure, shortened: as §1

[22] = system: SOLNI; experiment: Pre-emergence herbicidal activity on SOLNI (black nightshade); type: in vivo, Solanum nigrum; conditions: lowest tested rate giving 80% or greater inhibition, approx. 14 days after planting and treating, greenhouse
Procedure, shortened: as §1

## C=C(C)CSc1ccccc1C(=O)NC(C)CNC(=O)c1cccc(C(F)(F)F)c1 (stereo not shown) [Example 124]
[1]
  Pre-emergence activity (GR80) on CIRAR: 1000 g/ha
[2]
  Post-emergence activity (GR80) PANDI: [empty]
[3]
  Post-emergence activity (GR80) SORHA: [empty]
[4]
  Post-emergence activity (GR80) BRAPP: [empty]
[5]
  Pre-emergence activity (GR80) on DIGSA: 1000 g/ha
[6]
  Post-emergence activity (GR80) SORVU: [empty]
[7]
  Post-emergence activity (GR80) AMARE: phyto
[8]
  Post-emergence activity (GR80) ECHCG: [empty]
[9]
  Post-emergence activity (GR80) ABUTH: phyto
[10]
  Pre-emergence activity (GR80) on SETFA: phyto
[11]
  Post-emergence activity (GR80) DATST: phyto
[12]
  Post-emergence activity (GR80) PANMI: [empty]
[13]
  Post-emergence activity (GR80) DIGSA: [empty]
[14]
  Post-emergence activity (GR80) SOLNI: phyto
[15]
  Post-emergence activity (GR80) PORAL: phyto
[16]
  Post-emergence activity (GR80) CONAR: phyto
[17]
  Pre-emergence activity (GR80) on PANMI: phyto
[18]
  Pre-emergence activity (GR80) on BRAPP: phyto
[19]
  Post-emergence activity (GR80) SETFA: [empty]
[20]
  Post-emergence activity (GR80) CHEAL: [empty]
[21]
  Pre-emergence activity (GR80) on ECHCG: phyto
[22]
  Pre-emergence activity (GR80) on SOLNI: phyto
